Data: ChEMBL document CHEMBL3870346, “Development of a simple proton nuclear magnetic resonance-based procedure to estimate the approximate distribution coefficient at physiological pH (logD7.4): Evaluation and comparison to existing practices” (Bioorg Med Chem Lett, 2017)
Counter-ions that a name gives are not always drawn.

Tests used:
[1] = n-Octanol/water partition coefficient, log P of the compound by HPLC method
[2] = physchem; settings: buffer, pH 7.4
[3] = physchem; settings: 1-octanol/D2O, pH 7.4

Structure (SMILES) | logP ([1]; octanol/water) | logD [2] | logP ([1]; n-octanol/water) | logD [3]
c1ccc(-c2ccccc2)cc1 [BIPHENYL] | 4 | 4 |  | 
COc1ccc(O)cc1 [MEQUINOL] |  | 1.3 | 1.3 | 0.8
O=[N+]([O-])c1ccccc1O [NITROPHENOLATE] |  |  | 1.8 | 1.5
CCN(CC)CCOC(=O)c1ccc(N)cc1 [PROCAINE HYDROCHLORIDE] |  |  |  | -0.4
c1ccc2c(c1)ccc1ccccc12 |  | 4.5 | 4.5 | 
Cc1ccc(CO)cc1 |  | 1.8 | 1.6 | 1.4
c1ccc(Oc2ccccc2)cc1 |  |  |  | 3.5
CCC(C)=O [BUTANONE] |  | 0.3 | 0.3 | 0.4
Clc1ccccc1 [CHLOROBENZENE] |  | 2.9 | 2.8 | 2.6
N#Cc1ccccc1 [BENZONITRILE] |  |  | 1.6 | 1.6
Nc1ccc(Cl)cc1 [4-CHLOROANILINE] |  |  |  | 1.8
c1ccc2ccccc2c1 |  | 3.4 |  | 
Oc1ccccc1 [PHENOL] |  | 1.3 |  | 1.2
CC(=O)Nc1ccc(O)cc1 [ACETAMINOPHEN] |  |  |  | 0.2
CC(=O)Nc1ccccc1 [ACETANILIDE] | 1 | 1.2 |  | 0.7
CC(=O)c1ccccc1 [ACETOPHENONE] |  |  |  | 1.7
OCc1ccccc1 [BENZYL ALCOHOL] |  |  |  | 0.9
COC(=O)c1ccccc1 [METHYL BENZOATE] |  |  |  | 1.9
Cc1ccc(O)cc1 [p-CRESOL] | 1.9 | 1.8 |  | 2
CCOC(=O)c1ccccc1 [ETHYL BENZOATE] |  |  |  | 2.4
COc1ccccc1 [ANISOLE] |  | 2.3 |  | 2.3
